Measurements from US20240158446A1, “CYCLIC COMPOUND HAVING SELECTIVE INHIBITORY ACTION ON KRAS OVER HRAS AND NRAS” (CHUGAI SEIYAKU KABUSHIKI KAISHA, priority 2021, published 2024).

How the values were obtained:
[1] = molecular target: GDP-bound KRAS wild-type protein (Homo sapiens, UniProt P01116); assay: Binding to KRAS by surface plasmon resonance (SPR), Single Cycle Kinetics; details: SPR, Single Cycle Kinetics, GDP-bound KRAS wild-type protein; read-out: KRAS KD
[2] = molecular target: GDP-bound NRAS wild-type protein (Homo sapiens, UniProt P01111); assay: Binding to NRAS by surface plasmon resonance (SPR), Single Cycle Kinetics; details: SPR, GDP-bound NRAS wild-type protein vs GDP-bound KRAS wild-type protein
Chain of GDP-bound NRAS wild-type protein (P01111 whole entry): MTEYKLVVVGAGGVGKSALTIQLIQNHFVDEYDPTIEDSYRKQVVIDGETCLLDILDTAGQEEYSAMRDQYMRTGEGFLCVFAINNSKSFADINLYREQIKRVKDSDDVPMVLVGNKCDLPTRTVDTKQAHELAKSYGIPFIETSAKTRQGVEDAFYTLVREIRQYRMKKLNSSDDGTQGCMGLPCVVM

[3] = molecular target: GDP-bound HRAS wild-type protein (Homo sapiens, UniProt P01112); assay: Binding to HRAS by surface plasmon resonance (SPR), Single Cycle Kinetics; details: SPR, GDP-bound HRAS wild-type protein vs GDP-bound KRAS wild-type protein
Chain of GDP-bound HRAS wild-type protein (P01112 whole entry): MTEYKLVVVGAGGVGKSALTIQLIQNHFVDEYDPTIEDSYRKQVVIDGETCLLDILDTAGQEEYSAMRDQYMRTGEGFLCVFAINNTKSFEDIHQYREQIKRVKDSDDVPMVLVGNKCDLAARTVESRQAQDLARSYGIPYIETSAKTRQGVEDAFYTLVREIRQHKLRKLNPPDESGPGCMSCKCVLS

Chain of GDP-bound KRAS wild-type protein (P01116 whole entry): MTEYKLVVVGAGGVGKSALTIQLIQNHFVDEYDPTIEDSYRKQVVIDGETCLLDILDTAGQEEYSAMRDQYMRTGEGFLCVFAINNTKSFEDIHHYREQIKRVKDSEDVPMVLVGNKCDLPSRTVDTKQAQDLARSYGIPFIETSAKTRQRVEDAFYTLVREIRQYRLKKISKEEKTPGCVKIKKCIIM

| SMILES | Kd [1] [nM] | NRAS/KRAS (ratio of KD value for NRAS to KD value for KRAS) [2] | HRAS/KRAS (ratio of KD value for HRAS to KD value for KRAS) [3] |
| --- | --- | --- | --- |
| CCO[C@@H]1C[C@H]2C(=O)NC3(CC(C)(C)C3)C(=O)N(C)[C@@H](C(CC)CC)C(=O)N(C)[C@H](C(=O)N(C)C)CC(=O)N(C)[C@@H](CC3CCC3)C(=O)N[C@@H]([C@@H](C)CC)C(=O)N(C)CC(=O)N(C)[C@H]3C/C=C\CCN(C3=O)[C@@H](Cc3ccc(C(F)(F)F)cc3)C(=O)N(C)CC(=O)N[C@@H](CCc3ccc(C(F)(F)F)c(OC)c3)C(=O)N2C1 [PP2164] | 0.29 | A (a compound having 10 or more and less than 20 is denoted as A) | A (a compound having 10 or more and less than 20 is denoted as A) |
| CCO[C@@H]1C[C@H]2C(=O)NC3(CC(C)(C)C3)C(=O)N(C)[C@@H](C(CC)CC)C(=O)N(C)[C@H](C(=O)N(C)C)CC(=O)N(C)[C@@H](C(C)C)C(=O)N[C@@H]([C@@H](C)CC)C(=O)N(C)CC(=O)N(C)[C@H]3C/C=C\CCN(C3=O)[C@@H](Cc3ccc(C(F)(F)F)cc3)C(=O)N(C)CC(=O)N[C@@H](CCc3ccc(C(F)(F)F)c(OC)c3)C(=O)N2C1 [PP2165] | 0.51 | A (a compound having 10 or more and less than 20 is denoted as A) | A (a compound having 10 or more and less than 20 is denoted as A) |
| CCO[C@@H]1C[C@H]2C(=O)NC3(CC(C)(C)C3)C(=O)N(C)[C@@H](C(CC)CC)C(=O)N(C)[C@H](C(=O)N(C)C)CC(=O)N(C)[C@@H](CC3CC3)C(=O)N[C@@H]([C@@H](C)CC)C(=O)N(C)CC(=O)N(C)[C@H]3C/C=C\CCN(C3=O)[C@@H](Cc3ccc(C)cc3)C(=O)N(C)CC(=O)N[C@@H](CCc3ccc(C(F)(F)F)c(OC)c3)C(=O)N2C1 [PP2166] | 0.29 | A (a compound having 10 or more and less than 20 is denoted as A) | A (a compound having 10 or more and less than 20 is denoted as A) |
| CCO[C@@H]1C[C@H]2C(=O)NC3(CC(C)(C)C3)C(=O)N(C)[C@@H](C(CC)CC)C(=O)N(C)[C@H](C(=O)N3CCCC3)CC(=O)N(C)[C@@H](COC)C(=O)N[C@@H]([C@@H](C)CC)C(=O)N(C)CC(=O)N(C)[C@H]3C/C=C\CCN(C3=O)[C@@H](Cc3ccc(C)cc3)C(=O)N(C)CC(=O)N[C@@H](CCc3ccc(C(F)(F)F)c(OC)c3)C(=O)N2C1 [PP2167] | 0.71 | AA (a compound having 20 or more is denoted as AA) | A (a compound having 10 or more and less than 20 is denoted as A) |
| CCO[C@@H]1C[C@H]2C(=O)NC3(CC(C)(C)C3)C(=O)N(C)[C@@H](C(CC)CC)C(=O)N(C)[C@H](C(=O)N(C)C)CC(=O)N(C)[C@@H](CC(C)C)C(=O)N[C@@H]([C@@H](C)CC)C(=O)N(C)CC(=O)N(C)[C@H]3C/C=C\CCN(C3=O)[C@@H](Cc3ccc(C)cc3)C(=O)N(C)CC(=O)N[C@@H](CCc3ccc(C(F)(F)F)c(OC)c3)C(=O)N2C1 [PP2168] | 0.33 | A (a compound having 10 or more and less than 20 is denoted as A) | A (a compound having 10 or more and less than 20 is denoted as A) |
| CCO[C@@H]1C[C@H]2C(=O)NC3(CC(C)(C)C3)C(=O)N(C)[C@@H](C(CC)CC)C(=O)N(C)[C@H](C(=O)N3CCCC3)CC(=O)N(C)[C@@H](C)C(=O)N[C@@H]([C@@H](C)CC)C(=O)N(C)CC(=O)N(C)[C@H]3C/C=C\CCN(C3=O)[C@@H](Cc3ccc(C)cc3)C(=O)N(C)CC(=O)N[C@@H](CCc3ccc(C(F)(F)F)c(OC)c3)C(=O)N2C1 [PP2169] | 0.63 | AA (a compound having 20 or more is denoted as AA) | A (a compound having 10 or more and less than 20 is denoted as A) |
| CCO[C@@H]1C[C@H]2C(=O)NC3(CC(C)(C)C3)C(=O)N(C)[C@@H](C(CC)CC)C(=O)N(C)[C@H](C(=O)N(C)C)CC(=O)N(C)[C@@H](CC)C(=O)N[C@@H]([C@@H](C)CC)C(=O)N(C)CC(=O)N(C)[C@H]3C/C=C\CCN(C3=O)[C@@H](Cc3ccc(C)cc3)C(=O)N(C)CC(=O)N[C@@H](CCc3ccc(C(F)(F)F)c(OC)c3)C(=O)N2C1 [PP2170] | 0.33 | A (a compound having 10 or more and less than 20 is denoted as A) | A (a compound having 10 or more and less than 20 is denoted as A) |
| CCO[C@@H]1C[C@H]2C(=O)NC3(CC(C)(C)C3)C(=O)N(C)[C@@H](C(CC)CC)C(=O)N(C)[C@H](C(=O)N3CCCC3)CC(=O)N(C)[C@@H](CC)C(=O)N[C@@H]([C@@H](C)CC)C(=O)N(C)CC(=O)N(C)[C@H]3C/C=C\CCN(C3=O)[C@@H](Cc3ccc(C)cc3)C(=O)N(C)CC(=O)N[C@@H](CCc3ccc(C(F)(F)F)c(OC)c3)C(=O)N2C1 [PP2171] | 0.75 | A (a compound having 10 or more and less than 20 is denoted as A) | A (a compound having 10 or more and less than 20 is denoted as A) |
| CCO[C@@H]1C[C@H]2C(=O)NC3(CC(C)(C)C3)C(=O)N(C)[C@@H](C(CC)CC)C(=O)N(C)[C@H](C(=O)N(C)C)CC(=O)N(C)[C@@H](CC3CCC3)C(=O)N[C@@H]([C@@H](C)CC)C(=O)N(C)CC(=O)N(C)[C@H]3C/C=C\CCN(C3=O)[C@@H](Cc3ccc(C)cc3)C(=O)N(C)CC(=O)N[C@@H](CCc3ccc(C(F)(F)F)c(OC)c3)C(=O)N2C1 [PP2172] | 0.51 | A (a compound having 10 or more and less than 20 is denoted as A) | B (a compound having 3 or more and less than 10 is denoted as B) |
| CCO[C@@H]1C[C@H]2C(=O)NC3(CC(C)(C)C3)C(=O)N(C)[C@@H](C(CC)CC)C(=O)N(C)[C@H](C(=O)N(C)C)CC(=O)N(C)[C@@H](C(C)C)C(=O)N[C@@H]([C@@H](C)CC)C(=O)N(C)CC(=O)N(C)[C@H]3C/C=C\CCN(C3=O)[C@@H](Cc3ccc(C)cc3)C(=O)N(C)CC(=O)N[C@@H](CCc3ccc(C(F)(F)F)c(OC)c3)C(=O)N2C1 [PP2173] | 0.55 | A (a compound having 10 or more and less than 20 is denoted as A) | A (a compound having 10 or more and less than 20 is denoted as A) |

Second part, led by results:

| Kd [1] [nM] | SMILES | NRAS/KRAS (ratio of KD value for NRAS to KD value for KRAS) [2] | HRAS/KRAS (ratio of KD value for HRAS to KD value for KRAS) [3] |
| --- | --- | --- | --- |
| 0.4 | CCO[C@@H]1C[C@H]2C(=O)NC3(CC(C)(C)C3)C(=O)N(C)[C@@H](C(CC)CC)C(=O)N(C)[C@H](C(=O)N3CCCC3)CC(=O)N(C)[C@@H](COC)C(=O)N[C@@H]([C@@H](C)CC)C(=O)N(C)CC(=O)N(C)[C@H]3C/C=C\CCN(C3=O)[C@@H](Cc3ccc(C(F)(F)F)cc3)C(=O)N(C)CC(=O)N[C@@H](CCc3ccc(Cl)c(Cl)c3)C(=O)N2C1 [PP2174] | AA (a compound having 20 or more is denoted as AA) | A (a compound having 10 or more and less than 20 is denoted as A) |
| 0.47 | CCO[C@@H]1C[C@H]2C(=O)NC3(CC(C)(C)C3)C(=O)N(C)[C@@H](C(CC)CC)C(=O)N(C)[C@H](C(=O)N(C)C)CC(=O)N(C)[C@@H](CC(C)C)C(=O)N[C@@H]([C@@H](C)CC)C(=O)N(C)CC(=O)N(C)[C@H]3C/C=C\CCN(C3=O)[C@@H](Cc3ccc(C(F)(F)F)cc3)C(=O)N(C)CC(=O)N[C@@H](CCc3ccc(Cl)c(Cl)c3)C(=O)N2C1 [PP2176] | AA (a compound having 20 or more is denoted as AA) | A (a compound having 10 or more and less than 20 is denoted as A) |
| 0.49 | CCO[C@@H]1C[C@H]2C(=O)NC3(CC(C)(C)C3)C(=O)N(C)[C@@H](C(CC)CC)C(=O)N(C)[C@H](C(=O)N3CCCC3)CC(=O)N(C)[C@@H](C)C(=O)N[C@@H]([C@@H](C)CC)C(=O)N(C)CC(=O)N(C)[C@H]3C/C=C\CCN(C3=O)[C@@H](Cc3ccc(C(F)(F)F)cc3)C(=O)N(C)CC(=O)N[C@@H](CCc3ccc(Cl)c(Cl)c3)C(=O)N2C1 [PP2178] | AA (a compound having 20 or more is denoted as AA) | A (a compound having 10 or more and less than 20 is denoted as A) |
| 0.66 | CCO[C@@H]1C[C@H]2C(=O)NC3(CC(C)(C)C3)C(=O)N(C)[C@@H](C(CC)CC)C(=O)N(C)[C@H](C(=O)N(C)C)CC(=O)N(C)[C@@H](CC3CCC3)C(=O)N[C@@H]([C@@H](C)CC)C(=O)N(C)CC(=O)N(C)[C@H]3C/C=C\CCN(C3=O)[C@@H](Cc3ccc(C(F)(F)F)cc3)C(=O)N(C)CC(=O)N[C@@H](CCc3ccc(Cl)c(Cl)c3)C(=O)N2C1 [PP2180] | AA (a compound having 20 or more is denoted as AA) | A (a compound having 10 or more and less than 20 is denoted as A) |
| 1.4 | CCO[C@@H]1C[C@H]2C(=O)NC3(CC(C)(C)C3)C(=O)N(C)[C@@H](C(CC)CC)C(=O)N(C)[C@H](C(=O)N(C)C)CC(=O)N(C)[C@@H](C(C)C)C(=O)N[C@@H]([C@@H](C)CC)C(=O)N(C)CC(=O)N(C)[C@H]3C/C=C\CCN(C3=O)[C@@H](Cc3ccc(C(F)(F)F)cc3)C(=O)N(C)CC(=O)N[C@@H](CCc3ccc(Cl)c(Cl)c3)C(=O)N2C1 [PP2181] | AA (a compound having 20 or more is denoted as AA) | A (a compound having 10 or more and less than 20 is denoted as A) |
| 0.7 | CCC[C@H]1C(=O)N[C@@H]([C@@H](C)CC)C(=O)N(C)CC(=O)N(C)[C@H]2C/C=C\CCN(C2=O)[C@@H](Cc2ccc(C)cc2)C(=O)N(C)CC(=O)N[C@@H](CCc2ccc(Cl)c(Cl)c2)C(=O)N2C[C@H](OCC)C[C@H]2C(=O)NC2(CC(C)(C)C2)C(=O)N(C)[C@@H](C(CC)CC)C(=O)N(C)[C@H](C(=O)N(C)C)CC(=O)N1C [PP2184] | AA (a compound having 20 or more is denoted as AA) | A (a compound having 10 or more and less than 20 is denoted as A) |
